Results from paper PMC7794631 (Medicinal Chemistry Research, 2021).
Where two headings read alike, the source gives them in different places.

Key:
HCoV-OC43 = conditions: at 1 μM, Huh7, 5 days
MDCK cells = conditions: 24 h, T-1105 at 12.5 μM
IAV A/WS/33 (H1N1) [1] = test system: IAV A/WS/33 (H1N1)
HCMV ADCREGFP [2] = conditions: HFFs; for EC50: read-out: EC50 (μM) ± s.d., GFP reporter HCMV, GFP expression 6 days after compound, mean of 2–3 dose–response determinations
HFFs = assay: Cell viability assay; type: cell-based, human; conditions: read-out: CC50 (μM) ± s.d., 6 days, MTS assay, mean of 2–3 dose–response determinations
in vitro [3] = conditions: human, Compound only, percent viable cells ± standard deviation
in vitro [4] = conditions: dog
IAV A/WS/33 (H1N1) [5] = assay: microbe, parasite or virus in culture; conditions: Influenza A virus, H1N1, MDCK, 24 h
[6] = test system: HCMV immediate-early protein 1 (IE1); conditions: infected and treated cells; cited from earlier work
IAV A/WS/33 (H1N1) [7] = conditions: cited from earlier work
HCMV ADCREGFP [8] = conditions: cited from earlier work
[9] = test system: HCMV immediate-early protein 2 (IE2); conditions: infected and treated cells; cited from earlier work
Huh-7 cells = conditions: at 0.1 μM, Huh-7, 5 days
[10] = MDCK CPE assay, p97 inhibitors 0.1, 0.25, 0.5 μM, T-1105 at 12.5 μM

Compound: CCC(CC)COC(=O)[C@H](C)N[P@](=O)(OC[C@H]1O[C@@](C#N)(c2ccc3c(N)ncnn23)[C@H](O)[C@@H]1O)Oc1ccccc1 [RDV, remdesivir]
- protection against HCoV-OC43 CPE (HCoV-OC43): 100%

Compound: NC(=O)c1nccnc1O [Compound T-1105, 3-hydroxypyrazine-2-carboxamide]
- cell viability in IAV assay (in words) (MDCK cells): retention of cell viability
- anti-IAV activity (in words) (IAV A/WS/33 (H1N1) [1]; [10]): Clear antiviral effects

Compound: Cc1cc2c(C(N)=O)cccc2n1-c1nc2c(c(NCc3ccccc3)n1)COCC2 [CB-5083]
- EC50 (HCMV ADCREGFP [2]): 0.72 ± 1.1 µM
- CC50 (HFFs): 0.53 ± 0.1 µM
- viability at 0.25 µM (in vitro [3]): 59 ± 3%
- viability at 0.5 µM (in vitro [3]): 38 ± 1%
- anti-IAV activity (in words) (IAV A/WS/33 (H1N1) [1]): no detectable anti-IAV activity
- viability at 0.1 µM (in vitro [4]): 97 ± 3%

Compound: Cc1cc(OCc2nnc(SC3CCCC3)n2-c2cccnc2)ccc1-c1ccc(S(C)(=O)=O)cc1 [NMS-873]
- inhibition at 0.1 µM (IAV A/WS/33 (H1N1) [5]; read-out: Compound + Virus, percent viable cells ± standard deviation, 0.1 μM, MDCK, 24 h): 21 ± 7%
- inhibition at 0.25 µM (IAV A/WS/33 (H1N1) [5]; read-out: Compound + Virus, percent viable cells ± standard deviation, 0.25 μM, MDCK, 24 h): 62 ± 6%
- TI, tissue culture therapeutic index (CC50/EC50) (HCMV ADCREGFP [2]; HCMV): 1.9
- EC50 (HCMV ADCREGFP [2]): 2.2 ± 2.5 µM
- cell viability in IAV assay (in words) (MDCK cells): retention of cell viability
- IE1 expression [6]: not affected
- CC50 (HFFs): 4.1 ± 3.3 µM
- IAV virus production (in words) (IAV A/WS/33 (H1N1) [7]): inhibits virus production
- HCMV replication (in words) (HCMV ADCREGFP [8]): reduced virus replication
- IE2 expression [9]: reduced
- effect on cell viability (in words) (Huh-7 cells): clear effect on cell viability
- anti-IAV activity (in words) (IAV A/WS/33 (H1N1) [1]; [10]): Clear antiviral effects
- viability at 0.1 µM (in vitro [4]): 89 ± 3%
- viability at 0.25 µM (in vitro [4]): 80 ± 2%
- viability at 0.5 µM (in vitro [4]): 94 ± 2%
